This is an account of results in patent publication US10766869B2, “Triazoles for the treatment of demyelinating dieases” (Vertex Pharmaceuticals Incorporated, priority 2015, dated 2020).

The test system of this experiment is primary rat mixed cortical cells. In words: In vitro myelination assay (MBP positive myelin strands, fold myelin pixels above background). To be noted: Rattus norvegicus, relative to baseline of no added compound; for fold induction at 1 µM: 1.0 μM compound, read-out: Fold myelin pixels above background, 1.0 μM; for fold induction at 10 µM: 10.0 μM compound, read-out: Fold myelin pixels above background, 10.0 μM. The format is cell-based. In outline: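 P1 rat mixed cortical cultures (neurons, OPCs, oligodendrocytes, astrocytes, microglia) grown 14 days at 37 °C with compound, half-medium refreshed with compound on days 6 and 10. Fixed cells stained for MBP; MBP-positive myelin strand pixels per well quantified by automated imaging, reported as fold over no-compound baseline at 1.0 and 10.0 μM.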

The structures appear in SMILES notation.

On to `FC(F)c1cc(Nc2ncn(-c3cccnc3)n2)cc(N2CCN(C3COC3)CC2)c1` [Compound 209, N-[3-(difluoromethyl)-5-[4-(oxetan-3-yl)piperazin-1-yl]phenyl]-1-(3-pyridyl)-1,2,4-triazol-3-amine], for which the fold induction at 1 µM fell in the range of 100 to 1000 and the fold induction at 10 µM is 100 to 1000.

Take `COc1cc(OC)cc(-n2cnc(Nc3cc(C4CC4)nc(N4CCOCC4)c3)n2)c1` [Compound 210, 2-cyclopropyl-N-[1-(3,5-dimethoxyphenyl)-1,2,4-triazol-3-yl]-6-morpholino-pyridin-4-amine]: the fold induction at 1 µM is at most 1 and the fold induction at 10 µM lay in the range of 100 to 1000.

Take `COCC1CCN(c2cc(C)cc(Nc3ncn(-c4ccccn4)n3)c2)CC1` [Compound 211, N-[3-[4-(methoxymethyl)-1-piperidyl]-5-methyl-phenyl]-1-(2-pyridyl)-1,2,4-triazol-3-amine]: the fold induction at 1 µM was in the range of 10 to 100 and the fold induction at 10 µM was in the range of 100 to 1000.

With `Cc1cc(Nc2ncn(-c3ccccc3C#N)n2)cc(N2CCCC2)c1` [Compound 212, 2-[3-(3-methyl-5-pyrrolidin-1-yl-anilino)-1,2,4-triazol-1-yl]benzonitrile], the fold induction at 1 µM is at most 1 and the fold induction at 10 µM was at most 1.

`CN1CCN(c2cc(F)cc(Nc3ncn(-c4ccccc4)n3)c2)CC1` [Compound 213, N-[3-fluoro-5-(4-methylpiperazin-1-yl)phenyl]-1-phenyl-1,2,4-triazol-3-amine]: the fold induction at 1 µM was in the range of 100 to 1000 and the fold induction at 10 µM is at most 1.

As to `Cc1cc(Nc2ncn(-c3ccccc3)n2)cc(N2CCN(C3CC3)C(=O)C2)c1` [Compound 214, l-cyclopropyl-4-[3-methyl-5-[(1-phenyl-1,2,4-triazol-3-yl)amino]phenyl]piperazin-2-one], the fold induction at 1 µM lay in the range of 10 to 100 and the fold induction at 10 µM fell in the range of 1000 to 10000.

For `Cc1cc(Nc2ncn(-c3cc(F)cc(F)c3)n2)cc(N2CCC(C3COC3)CC2)c1` [Compound 216, 1-(3,5-difluorophenyl)-N-[3-methyl-5-[4-(oxetan-3-yl)-1-piperidyl]phenyl]-1,2,4-triazol-3-amine], the fold induction at 1 µM is 1 to 10 and the fold induction at 10 µM was 10 to 100.

In the case of `Cc1cc(Nc2ncn(-c3cncc(Cl)c3)n2)cc(N2CCN(C3COC3)CC2)c1` [Compound 217, 1-(5-chloro-3-pyridyl)-N-[3-methyl-5-[4-(oxetan-3-yl)piperazin-1-yl]phenyl]-1,2,4-triazol-3-amine], the fold induction at 1 µM fell in the range of 10 to 100 and the fold induction at 10 µM lay within 10 to 100.

Take `CCc1cc(Nc2ncn(-c3cccc(C(F)(F)F)c3)n2)cc(N2CCN(C3COC3)CC2)c1` [Compound 218, N-[3-ethyl-5-[4-(oxetan-3-yl)piperazin-1-yl]phenyl]-1-[3-(trifluoromethyl)phenyl]-1,2,4-triazol-3-amine]: the fold induction at 1 µM lay in the range of 100 to 1000 and the fold induction at 10 µM was at most 1.

`Cc1cc(Nc2ncn(-c3ccccc3)n2)cc(N2C[C@@H]3C[C@H]2CN3C2COC2)c1` [Compound 219, N-[3-methyl-5-[(1S,4S)-2-(oxetan-3-yl)-2,5-diazabicyclo[2.2.1]heptan-5-yl]phenyl]-1-phenyl-1,2,4-triazol-3-amine]: the fold induction at 1 µM lay in the range of 100 to 1000 and the fold induction at 10 µM is 1 to 10.

Consider `Cc1cc(Nc2ncn(-c3cc(F)cc(Cl)c3)n2)cc(N2CCN(C)CC2)c1` [Compound 220, 1-(3-chloro-5-fluoro-phenyl)-N-[3-methyl-5-(4-methylpiperazin-1-yl)phenyl]-1,2,4-triazol-3-amine], for which the fold induction at 1 µM lay in the range of 10 to 100 and the fold induction at 10 µM was at most 1.

`Cc1cc(Nc2ncn(-c3cc(F)cc(F)c3)n2)cc(C2CCN(C3COC3)CC2)c1` [Compound 221, 1-(3,5-difluorophenyl)-N-[3-methyl-5-[1-(oxetan-3-yl)-4-piperidyl]phenyl]-1,2,4-triazol-3-amine]: the fold induction at 1 µM fell in the range of 1 to 10 and the fold induction at 10 µM fell in the range of 100 to 1000.

For the compound `c1ccc(-n2cnc(Nc3cc(C4CC4)nc(N4CCOCC4)c3)n2)cc1` [Compound 222, 2-cyclopropyl-6-morpholino-N-(1-phenyl-1,2,4-triazol-3-yl)pyridin-4-amine], the fold induction at 1 µM lay within 100 to 1000 and the fold induction at 10 µM is 1 to 10.

For `Cc1cc(Nc2ncn(-c3ccccc3F)n2)cc(N2CCN(C3COC3)CC2)c1` [Compound 223, 1-(2-fluorophenyl)-N-[3-methyl-5-[4-(oxetan-3-yl)piperazin-1-yl]phenyl]-1,2,4-triazol-3-amine], the fold induction at 1 µM fell in the range of 10 to 100 and the fold induction at 10 µM fell in the range of 10 to 100.

For `Cc1cc(Nc2ncn(-c3ccncc3)n2)cc(N2CCN(C3COC3)CC2)c1` [Compound 224, N-[3-methyl-5-[4-(oxetan-3-yl)piperazin-1-yl]phenyl]-1-(4-pyridyl)-1,2,4-triazol-3-amine], the fold induction at 1 µM fell in the range of 100 to 1000 and the fold induction at 10 µM lay in the range of 10 to 100.

For `Fc1ccccc1-n1cnc(Nc2cc(C3CC3)cc(N3CCN(C4COC4)CC3)c2)n1` [Compound 225, N-[3-cyclopropyl-5-[4-(oxetan-3-yl)piperazin-1-yl]phenyl]-1-(2-fluorophenyl)-1,2,4-triazol-3-amine], the fold induction at 1 µM was in the range of 100 to 1000 and the fold induction at 10 µM lay in the range of 100 to 1000.

`CN1CCN(c2cc(Nc3ncn(-c4ccnc(F)c4)n3)cc(C(F)(F)F)c2)CC1` [Compound 226, 1-(2-fluoro-4-pyridyl)-N-[3-(4-methylpiperazin-1-yl)-5-(trifluoromethyl)phenyl]-1,2,4-triazol-3-amine]: the fold induction at 1 µM was in the range of 100 to 1000 and the fold induction at 10 µM is at most 1.

As to `Cc1cc(Nc2ncn(-c3ccccc3)n2)cc(N2CCN3C(=O)OCC3C2)c1` (stereo not shown) [Compound 227, 7-[3-methyl-5-[(1-phenyl-1,2,4-triazol-3-yl)amino]phenyl]-5,6,8,8a-tetrahydro-1H-oxazolo[3,4-a]pyrazin-3-one], the fold induction at 1 µM is 100 to 1000 and the fold induction at 10 µM fell in the range of 10 to 100.

With `Cc1cc(Nc2ncn(-c3cc(F)cc(F)c3)n2)cc(N2CCN(C3CS(=O)(=O)C3)CC2)c1` [Compound 228, 1-(3,5-difluorophenyl)-N-[3-[4-(1,1-dioxothietan-3-yl)piperazin-1-yl]-5-methyl-phenyl]-1,2,4-triazol-3-amine], the fold induction at 1 µM was in the range of 10 to 100 and the fold induction at 10 µM fell in the range of 100 to 1000.

For `Cc1cc(Nc2ncn(-c3cc(F)cc(F)c3)n2)cc(C2CN(C3COC3)C2)c1` [Compound 229, 1-(3,5-difluorophenyl)-N-[3-methyl-5-[1-(oxetan-3-yl)azetidin-3-yl]phenyl]-1,2,4-triazol-3-amine], the fold induction at 1 µM lay within 100 to 1000 and the fold induction at 10 µM fell in the range of 100 to 1000.

On to `Fc1cc(Nc2ncn(-c3cccc(F)c3)n2)cc(C2CCN(C3COC3)C2)c1` (stereo not shown) [Compound 230, N-[3-fluoro-5-[1-(oxetan-3-yl)pyrrolidin-3-yl]phenyl]-1-(3-fluorophenyl)-1,2,4-triazol-3-amine], for which the fold induction at 1 µM lay within 1000 to 10000 and the fold induction at 10 µM is at most 1.

For `Cc1cc(Nc2ncn(-c3ccc(F)c(F)c3)n2)cc(N2CCN(CC(F)(F)F)CC2)c1` [Compound 231, 1-(3,4-difluorophenyl)-N-[3-methyl-5-[4-(2,2,2-trifluoroethyl)piperazin-1-yl]phenyl]-1,2,4-triazol-3-amine], the fold induction at 1 µM was in the range of 100 to 1000 and the fold induction at 10 µM was in the range of 100 to 1000.

Regarding `Cc1cc(Nc2ncn(-c3cc(F)nc(F)c3)n2)cc(N2CCN(C3COC3)CC2)c1` [Compound 232, 1-(2,6-difluoro-4-pyridyl)-N-[3-methyl-5-[4-(oxetan-3-yl)piperazin-1-yl]phenyl]-1,2,4-triazol-3-amine], the fold induction at 1 µM lay in the range of 10 to 100 and the fold induction at 10 µM fell in the range of 10 to 100.

Consider `COCc1ccccc1-n1cnc(Nc2cc(C)cc(N3CCN(C4COC4)CC3)c2)n1` [Compound 233, 1-[2-(methoxymethyl)phenyl]-N-[3-methyl-5-[4-(oxetan-3-yl)piperazin-1-yl]phenyl]-1,2,4-triazol-3-amine], for which the fold induction at 1 µM is at most 1 and the fold induction at 10 µM was at most 1.

Regarding `C1=C(c2cc(Nc3ncn(-c4ccccc4)n3)cc(C3=CCOC3)c2)COC1` [Compound 234, N-[3,5-bis(2,5-dihydrofuran-3-yl)phenyl]-1-phenyl-1,2,4-triazol-3-amine], the fold induction at 1 µM fell in the range of 1 to 10 and the fold induction at 10 µM fell in the range of 100 to 1000.

For the compound `Cc1cc(Nc2ncn(-c3cc(F)cc(F)c3)n2)cc(C2CCN(C3COC3)CC2(F)F)c1` (stereo not shown) [Compound 235, N-[3-[3,3-difluoro-1-(oxetan-3-yl)-4-piperidyl]-5-methyl-phenyl]-1-(3,5-difluorophenyl)-1,2,4-triazol-3-amine], the fold induction at 1 µM fell in the range of 10 to 100 and the fold induction at 10 µM is 10 to 100.

In the case of `CCCc1cc(Nc2ncn(-c3cnccn3)n2)cc(N2CCN(C3COC3)CC2)c1` [Compound 236, N-[3-[4-(oxetan-3-yl)piperazin-1-yl]-5-propyl-phenyl]-1-pyrazin-2-yl-1,2,4-triazol-3-amine], the fold induction at 1 µM was at most 1 and the fold induction at 10 µM was at most 1.

For the compound `Cc1cc(N2CCN(C3COC3)CC2)cc(Nc2ncn(-c3ccccc3)n2)c1C` [Compound 237, N-[2,3-dimethyl-5-[4-(oxetan-3-yl)piperazin-1-yl]phenyl]-1-phenyl-1,2,4-triazol-3-amine], the fold induction at 1 µM is 1000 to 10000 and the fold induction at 10 µM fell in the range of 100 to 1000.

For `Cc1cc(Nc2ncn(-c3cc(F)cc(F)c3)n2)cc(N2CCC(O)CC2)c1` [Compound 238, 1-[3-[[1-(3,5-difluorophenyl)-1,2,4-triazol-3-yl]amino]-5-methyl-phenyl]piperidin-4-ol], the fold induction at 1 µM was in the range of 1000 to 10000 and the fold induction at 10 µM was in the range of 100 to 1000.
